One compound from patent US11980592B2, “Cannabinoid-containing complex mixtures for the treatment of neurodegenerative diseases” (GBS GLOBAL BIOPHARMA, INC., priority 2016, dated 2024) can be followed below.

The test system of this series is Cath.a cells. In words: TRPV1-induced calcium-mediated cell death (Trypan Blue positivity). The series is classed as cell-based. As for the experimental part:
We therefore studied susceptibility of HEK wild type cells, TRPV1 overexpressing HEK cells, and Cath.a cells to TRPV1-induced calcium-mediated cell death.
Cells were plated into tissue culture dishes and treated with either vehicle (HEK wild type and Cath.a) or tetracycline (1 micromolar) for 16 h to induce TRPV1 expression (HEK-TRPV1) at 37° C. in a […] atmosphere. After washing, media were replaced with a modified sodium Ringer solution containing 3% FBS and either 10 millimolar CaCl2 or zero added CaCl2 and 1 millimolar EGTA. […] After 2 minutes, aliquots of 7 microliters of cell suspension were counted in a hemocytometer and field of at least 200 cells were scored for Trypan Blue positive or negative status.

With `COc1cc(CNC(=O)CCCC/C=C/C(C)C)ccc1O` [capsaicin], under “10 mM external CaCl2, 80 min after stimulation with 250 nM capsaicin”, the “cell death (trypan blue positivity) in Cath.a cells” value is “can induce cell death”. Also, the “cell death (percent trypan blue positive cells) in Cath.a cells in the absence of external calcium” value (no external calcium, 80 min after stimulation with 250 nM capsaicin) was “dependent upon the presence of external calcium”.
